# Experimental data from article PMC6218659, “Structures of DPAGT1 Explain Glycosylation Disease Mechanisms and Advance TB Antibiotic Design” (Cell, 2018).
# Where two headings read alike, the source gives them in different places.
# Key:
# Mtb H37Rv ATCC27294 = experiment: Minimum inhibitory concentrations testing against Mtb; type: cell-based, Mycobacterium tuberculosis; conditions: for MIC: Mycobacterium tuberculosis
# B. subtilis EC1524 = experiment: Micro-broth dilution and drop plate antimicrobial susceptibility test; type: cell-based, Bacillus subtilis
# Method: (§1) In a sterile 96-well plate, serial dilutions were made with the test substance to final volume of 50 μl. Inoculum was then prepared in Mueller-Hinton broth to 0.5 McFarland and diluted before adding 50 μl to the well to make ∼1x10^5 CFU/ml. The culture plate was incubated at 35 °C for 20-24 hrs. A positive growth control and sterility wells were also prepared along with the culture wells. Absorbance at OD600 was taken using BMG Labtech SPECTROstar Omega spectrophotometer. MIC is determined by the lowest concentration without growth. IC50 is determined from plotting a dose-response curve, see Data Analysis below. To determine the MBC, using a multi-channel pipette, 1 μl of culture broth was taken from the same 96-well microdilution growth plate and carefully inoculated on surface of MH agar plate. The plate is then incubated for additional 20 hrs. at 35 °C. The MBC value is the lowest concentration without observed growth on the agar.
# B. cereus ATCC11778 = experiment: as above; type: cell-based, Bacillus cereus
# Method: as §1
# E. coli ATCC25922 = experiment: as above; type: cell-based; conditions: Escherichia coli
# Method: as §1
# P. aeruginosa ATCC27853 = experiment: as above; type: cell-based; conditions: Pseudomonas aeruginosa
# Method: as §1
# S. aureus ATCC29219 = experiment: as above; type: cell-based; conditions: Staphylococcus aureus
# Method: as §1
# HEK293 cells = experiment: Cell proliferation assay (MTS); type: cell-based, human; conditions: for LD50 values, HEK293: MTS cell proliferation assay, 24 hrs, highest concentration 400 µg mL-1
# Method: (§2) In sterile 96-well plate, each well was seeded with ∼1x10^5 cells. The cells are then grown confluent overnight in 100 μl DMEM with 10% FBS. The medium is replenished with DMEM with 2% FBS and added vehicle control or test substance the next day. For test substance in methanol, stock was added to 25 μl of DMEM with 2% FBS or PBS and placed in the laminar flow hood to let the methanol evaporate (about 1-3 hrs). Once the methanol has evaporated, DMEM with 2% FBS was added to final volume of 100 μl of desired test concentration. […] Cells are grown for additional 24 hrs. The cell viability was determined by using Promega CellTiter 96^© AQueous One Solution Cell Proliferation Assay (3-(4,5-dimethylthiazol-2-yl)-5-(3-carboxymethoxyphenyl)-2-(4-sulfophenyl)-2H-tetrazolium, inner salt; MTS) System following the manufacture protocol.
# HepG2 cells = experiment: Cell proliferation assay (MTS); type: cell-based, human; conditions: for LD50 values, HepG2: MTS cell proliferation assay, 24 hrs, highest concentration 400 µg mL-1
# Method: as §2
# Raji cells = experiment: Cell proliferation assay (MTS); type: cell-based, human; conditions: 24 hrs
# Method: as §2
# [1] = minimal lethal dose / MIC, 800 μg mL-1 used for >400
# [2] = serial 2-fold dilutions (Table S6)
structure (smiles),measurement,setting,value
"NNC(=O)c1ccncc1 [Isoniazid, reference compound]",MIC,"Mtb H37Rv ATCC27294; Mtb H37Rv, tested from 0.024 - 50 μM, read-out: MIC of positive control",0.2 ± 0.1 µM
"CC(C)=CCC[C@H](C)CC(=O)N[C@H]1[C@H](O[C@H]2O[C@H](CO)[C@@H](O)[C@H](O)[C@H]2NC(=O)C[C@@H](C)CCC=C(C)C)O[C@H](C[C@@H](O)[C@H]2O[C@@H](n3ccc(=O)[nH]c3=O)[C@H](O)[C@@H]2O)[C@H](O)[C@@H]1O [TUN-Cit,Cit, Di-N-citronoyl-tunicamycin]",IC50,"B. subtilis EC1524; Bacillus subtilis, EC1524",0.36 ± 0.12 µg/mL
same,MBC,"B. subtilis EC1524; Bacillus subtilis, EC1524",> 200 µg/mL
same,MIC,"B. subtilis EC1524; Bacillus subtilis, EC1524",5.2 ± 1.8 µg/mL
same,MIC,"B. subtilis EC1524; Bacillus subtilis, EC1524, read-out: Minimal Inhibitory Concentration, B. subtilis EC1524",6.25 µg/mL
same,"Relative Therapeutic Index (RTI), B. subtilis EC1524",B. subtilis EC1524; [1],128
same,IC50,"B. cereus ATCC11778; Bacillus cereus, ATCC11778",6.29 ± 2.1 µg/mL
same,MBC,"B. cereus ATCC11778; Bacillus cereus, ATCC11778",> 200 µg/mL
same,MIC,"B. cereus ATCC11778; Bacillus cereus, ATCC11778",83 ± 29 µg/mL
same,MIC,"B. cereus ATCC11778; Bacillus cereus, ATCC 11778 / NRRL11778, read-out: Minimal Inhibitory Concentration, B. cereus NRRL 11778",100 µg/mL
same,"Relative Therapeutic Index (RTI), B. cereus NRRL 11778",B. cereus ATCC11778; [1],8
same,IC50,E. coli ATCC25922,218 µg/mL
same,MBC,E. coli ATCC25922,400 µg/mL
same,MIC,E. coli ATCC25922,> 400 µg/mL
same,IC50,P. aeruginosa ATCC27853,70.3 µg/mL
same,MBC,P. aeruginosa ATCC27853,> 400 µg/mL
same,MIC,P. aeruginosa ATCC27853,170 ± 60 µg/mL
same,IC50,S. aureus ATCC29219,177 µg/mL
same,MBC,S. aureus ATCC29219,> 200 µg/mL
same,MIC,S. aureus ATCC29219,> 400 µg/mL
same,MIC,"Mtb H37Rv ATCC27294; 168 h, read-out: 1-week MIC in 7H9/ADC/Tw",16.3 ± 8.8 µg/mL
same,MIC,"Mtb H37Rv ATCC27294; 168 h, read-out: 1-week MIC in GAST/Fe",3.4 ± 3.1 µg/mL
same,MIC,"Mtb H37Rv ATCC27294; 168 h, read-out: Minimal Inhibitory Concentration, Mtb H37RV a",16.3 µg/mL
same,MIC,"Mtb H37Rv ATCC27294; 168 h, read-out: Minimal Inhibitory Concentration, Mtb H37RV b",3.4 µg/mL
same,"Relative Therapeutic Index (RTI), Mtb H37RV a","Mtb H37Rv ATCC27294; minimal lethal dose / MIC, 7H9/ADC/Tw, 800 μg mL-1 used for >400",49
same,"Relative Therapeutic Index (RTI), Mtb H37RV b","Mtb H37Rv ATCC27294; minimal lethal dose / MIC, GAST/Fe, 800 μg mL-1 used for >400",235
same,"LD50 values, HEK293",HEK293 cells,"N/A (N/A = not available. No or low cytotoxicity observed at highest, saturating concentration tested (400 µg mL-1))"
same,"Minimal Lethal Dose, HEK 293",HEK293 cells; [2],> 400 µg/mL
same,"LD50 values, HepG2",HepG2 cells,"N/A (N/A = not available. No or low cytotoxicity observed at highest, saturating concentration tested (400 µg mL-1))"
same,"Minimal Lethal Dose, HepG2",HepG2 cells; [2],> 400 µg/mL
same,"LD50 values, Raji",Raji cells,177.75 ± 75.17 µg/mL
"CC(=O)N[C@H]1C(O)O[C@H](C[C@@H](O)[C@H]2O[C@@H](n3ccc(=O)[nH]c3=O)[C@H](O)[C@@H]2O)[C@H](O)[C@@H]1O (stereo partly shown) [(2), N-acetyl-tunicamyl-uracil]",MIC,"Mtb H37Rv ATCC27294; 168 h, Mtb H37Rv, minimal growth medium, read-out: 1-week MIC in GAST/Fe",42.5 ± 3.5 µg/mL
same,MIC,"Mtb H37Rv ATCC27294; 168 h, Mtb H37Rv, rich 7H9-based growth medium, read-out: 1-week MIC in 7H9/ADC/Tw",> 60 µg/mL
same,"LD50 values, HEK293",HEK293 cells,"N/A (N/A = not available. No or low cytotoxicity observed at highest, saturating concentration tested (400 µg mL-1))"
same,"LD50 values, HepG2",HepG2 cells,"N/A (N/A = not available. No or low cytotoxicity observed at highest, saturating concentration tested (400 µg mL-1))"
same,"LD50 values, Raji",Raji cells,303.80 ± 9.83 µg/mL
"N[C@@H]1CON=C1O [D-cycloserine, reference compound]",MIC,"Mtb H37Rv ATCC27294; Mtb H37Rv, used for macromolecular incorporation assay, read-out: MIC concentrations for controls",29 µM
